In article PMC10761937, “Functional engineering of human iPSC‐derived parasympathetic neurons enhances responsiveness to gastrointestinal hormones” (FEBS Open Bio, 2023):

Test system: NPY2R
Assay: cAMP accumulation assay, NPY2R‐HEK293T cells
Type: cell-based, human
Conditions: 0, 1, 10, 100 nM PYY, 0.5 mM IBMX, 10 μM FSK, 37 °C, 30 min, cAMP ELISA, n = 3
Description: HEK293T cells (Lenti‐X 293T Cell line; TaKaRa, Shiga, Japan) were maintained in Dulbecco's Modified Eagle Medium (DMEM; Fujifilm Wako Pure Chemical Industries, Osaka, Japan) supplemented with 10% fetal bovine serum (Biowest, Nuaillé, France), 1% non‐essential amino acids (NEAA) (Fujifilm Wako Pure Chemical Industries), and 1% penicillin–streptomycin (P/S) (Fujifilm Wako Pure Chemical Industries) and cultured in non‐coated culture plates at 37 °C and in an incubator with 5% CO2. The culture medium was replaced every 2–3 days. At 80–90% confluence, the cell colonies were digested into single cells using TrypLE Express (Thermo Fisher Scientific). The resulting cells were used for lentiviral transfection and agonist experiments.
Figure S1 presents the protocol used for this experiment. Lentiviral vectors were acquired from VectorBuilder (VectorBuilder Japan, Inc., Kanagawa, Japan). The mCherry expression vector (pLV‐Puro‐EF1A‐mCherry) was used as a control. pMD2.g plasmid (Addgene plasmid# 12259; RRID: Addgene 12259, Watertown, MA, USA) and psPAX2 plasmids (Addgene plasmid# 12260; RRID: Addgene 12260) were used as packaging plasmids. To produce lentiviruses, HEK293T cells were transduced with lentiviral vectors and packaging constructs containing 2 μg of lentivirus plasmids, 1 μg of pMD2.g, and 1 μg of psPAX2 plasmids using polyethyleneimine (PEI; Polysciences Inc., Warrington, PA, USA). […]

## PYY: PYY (4400‐v; Peptide Institute, Inc.); PYY (3–36) in Ca2+ imaging
  Intracellular cAMP levels (Gi function): decreased in a concentration‐dependent manner
